Experimental data taken from ChEMBL document CHEMBL5241087, “A review on the structures and biological activities of anti-Helicobacter pylori agents” (Eur J Med Chem, 2021).
pIC50, pKd, pKi: −log10 of the molar value. ≈ marks a conversion by molar mass, not a printed value.

Columns and labels:
[1] = tested on: Helicobacter pylori; assay: Antibacterial activity against Helicobacter pylori assessed as bacterial growth inhibition; type: functional
[2] = Antioxidant activity assessed as radical scavenging activity; type: functional
[3] = tested on: Helicobacter pylori; assay: Antibacterial activity against clinical isolate Helicobacter pylori assessed as bacterial growth inhibition incubated for 72 hrs by agar dilution method; type: functional
[4] = Inhibition of Helicobacter pylori IMPDH
[5] = target: T1, Glutamate racemase (Helicobacter pylori J99, UniProt Q9ZLT0); assay: Inhibition of Helicobacter pylori Glutamate racemase
T1 sequence (Q9ZLT0 whole entry): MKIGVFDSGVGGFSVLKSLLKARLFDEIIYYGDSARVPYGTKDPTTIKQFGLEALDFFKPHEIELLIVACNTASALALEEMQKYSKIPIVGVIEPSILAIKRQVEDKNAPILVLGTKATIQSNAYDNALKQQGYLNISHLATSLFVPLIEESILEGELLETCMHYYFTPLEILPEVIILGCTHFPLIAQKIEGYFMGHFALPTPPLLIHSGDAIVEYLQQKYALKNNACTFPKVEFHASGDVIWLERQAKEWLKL

[6] = tested on: Helicobacter pylori; assay: Antibacterial activity against wild type Helicobacter pylori; type: functional
[7] = tested on: Helicobacter pylori; assay: Antibacterial activity against Helicobacter pylori; type: functional
[8] = tested on: Helicobacter pylori; assay: Antimicrobial activity against Helicobacter pylori KA05 assessed as inhibition of bacterial growth by broth dilution method; type: functional
[9] = Inhibition of Helicobacter pylori IMPDH incubated for 10 mins by multilabel reader analysis
[10] = Inhibition of Helicobacter pylori GatCAB assessed as inhibition constant
[11] = tested on: Helicobacter pylori; assay: Antibacterial activity against metronidazole-resistant Helicobacter pylori assessed as inhibition zone at 50 ug per disk by paper disk diffusion assay; type: functional; settings: read-out: IZ
[12] = tested on: Helicobacter pylori; assay: Antibacterial activity against Helicobacter pylori assessed as diameter of zone inhibition at 25 to 100 ug per disk incubated for […] by disk diffusion assay; type: functional; settings: dose 25-100 µg
[13] = tested on: Helicobacter pylori; assay: Antibacterial activity against Helicobacter pylori SS1 assessed as reduction in bacterial growth by broth microdilution method; type: functional
[14] = tested on: Helicobacter pylori; assay: Antibacterial activity against Helicobacter pylori P12 assessed as reduction in bacterial growth by broth microdilution method; type: functional
[15] = tested on: Helicobacter pylori; assay: Antibacterial activity against Helicobacter pylori assessed as diameter of zone inhibition at 12.5 to 100 ug per disk incubated for […] by disk diffusion assay; type: functional; settings: dose 12.5-100 µg
[16] = tested on: Helicobacter pylori; assay: Antimicrobial activity against Helicobacter pylori EP1757 assessed as inhibition of bacterial growth; type: functional
[17] = tested on: Helicobacter pylori; assay: Antimicrobial activity against Helicobacter pylori EP1836 assessed as inhibition of bacterial growth; type: functional
[18] = tested on: Helicobacter pylori; assay: Antibacterial activity against metronidazole-resistant Helicobacter pylori assessed as diameter of zone inhibition at 12.5 to 100 ug per disk by paper disk diffusion assay; type: functional; settings: dose 12.5-100 µg
[19] = tested on: Helicobacter pylori; assay: Antimicrobial activity against Helicobacter pylori assessed as inhibition of bacterial growth incubated for 72 hrs by broth dilution method; type: functional
[20] = tested on: Helicobacter pylori; assay: Antibacterial activity against metronidazole-resistant Helicobacter pylori assessed as diameter of zone inhibition at 16 to 32 ug per disk incubated for 2 to 10 days by disk diffusion assay; type: functional; settings: dose 16-32 µg; time 2-10 day
[21] = target: T2, Aminodeoxyfutalosine nucleosidase (Helicobacter pylori (strain J99 / ATCC 700824) (Campylobacter pylori J99), UniProt Q9ZMY2); assay: Inhibition of Helicobacter pylori MTAN assessed as dissociation constant
T2 sequence (Q9ZMY2 whole entry): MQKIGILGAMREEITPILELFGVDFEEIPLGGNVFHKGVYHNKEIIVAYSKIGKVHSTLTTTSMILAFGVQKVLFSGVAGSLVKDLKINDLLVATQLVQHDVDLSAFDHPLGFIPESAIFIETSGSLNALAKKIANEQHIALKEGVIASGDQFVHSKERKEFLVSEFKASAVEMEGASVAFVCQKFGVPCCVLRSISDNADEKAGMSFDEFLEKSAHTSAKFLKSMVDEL

[22] = target: Inosine-5'-monophosphate dehydrogenase 2 (Homo sapiens) (UniProt P12268); assay: Inhibition of human IMPDH at 10 uM incubated for 10 mins by multilabel reader analysis relative to control
[23] = tested on: Helicobacter pylori; assay: Inhibition of Helicobacter pylori IMPDH at 10 uM incubated for 10 mins in presence of […] by multilabel reader analysis relative to control
[24] = Inhibition of Helicobacter pylori IMPDH incubated for 10 mins in presence of […] by multilabel reader analysis
[25] = tested on: Helicobacter pylori; assay: Antibacterial activity against Helicobacter pylori ATCC 43504 assessed as bacterial growth inhibition; type: functional
[26] = tested on: Helicobacter pylori; assay: Antibacterial activity against metronidazole-resistant Helicobacter pylori incubated for 72 hrs; type: functional
[27] = Inhibition of urease (unknown origin)
[28] = Plasma protein binding in human; type: ADME, cell-free; settings: read-out: PPB (converted)
[29] = tested on: Helicobacter pylori; assay: Antibacterial activity against metronidazole-resistant Helicobacter pylori ATCC 43504; type: functional, organism-based

Sequence of Inosine-5'-monophosphate dehydrogenase 2 (Homo sapiens) (P12268 2-514 limits assumed): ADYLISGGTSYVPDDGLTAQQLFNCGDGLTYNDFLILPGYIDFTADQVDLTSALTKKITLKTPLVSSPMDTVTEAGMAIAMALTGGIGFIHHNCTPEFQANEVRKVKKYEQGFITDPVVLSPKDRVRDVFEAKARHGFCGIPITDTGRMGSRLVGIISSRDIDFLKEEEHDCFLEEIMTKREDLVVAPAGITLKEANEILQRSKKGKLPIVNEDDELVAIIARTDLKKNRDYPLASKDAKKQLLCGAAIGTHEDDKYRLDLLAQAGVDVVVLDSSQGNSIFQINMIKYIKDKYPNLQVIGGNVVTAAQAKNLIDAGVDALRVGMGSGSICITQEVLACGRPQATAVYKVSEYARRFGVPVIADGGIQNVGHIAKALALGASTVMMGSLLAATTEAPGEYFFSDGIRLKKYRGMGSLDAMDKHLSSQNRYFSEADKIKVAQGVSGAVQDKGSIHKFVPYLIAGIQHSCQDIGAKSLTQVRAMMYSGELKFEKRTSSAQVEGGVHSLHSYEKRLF

COC1=CC(=O)c2c(c(OC)c3cc(C)oc(=O)c3c2O)C1=O
MIC [1]: 64 µg/mL (≈ 202 µM) | ED50 [2]: 1.58 µg/mL (≈ 5 µM)

Cn1cnc([N+](=O)[O-])c1S(=O)(=O)c1ccccc1
MIC [3]: 32 µg/mL (≈ 120 µM)

O=C(Cn1cc(/N=N/c2cccnc2)c2ccccc21)Nc1ccc2ccccc2c1
pIC50 [4]: 6.10

Cn1cc(C#N)cc1-c1c2c(=O)n(C)c(=O)n(CC3CC3)c2nn1Cc1ccnc2ccc(Cl)cc12
pIC50 [5]: 7.59 | MIC [6]: 0.5 µg/mL (≈ 1 µM)

C=C(C)CCC(CC1(CC=C(C)C)C(=O)C(C(CCC)CC(=O)O)=C2O[C@H](C)[C@@H](C)C(=O)C2=C1O)C(=C)C (some centres undefined)
MIC [7]: 50 µg/mL (≈ 94.9 µM)

COc1cc2ccc(=O)oc2cc1O [SCOPOLETIN]
MIC [8]: 50 µg/mL (≈ 260 µM)

C=C(C)C(CC=C(C)C)CC1(CC=C(C)C)C(=O)C(C(CCC)CC(=O)O)=C2O[C@H](C)[C@@H](C)C(=O)C2=C1O (some centres undefined)
MIC [7]: 12.5 µg/mL (≈ 23.7 µM)

COC1=CC(=O)c2c(cc(C)c(C(C)=O)c2O)C1=O
MIC50 [7]: 0.3 µM (≈ 0.0781 µg/mL) | MIC90 [7]: 0.39 µM (≈ 0.101 µg/mL)

CN(C)c1ncnc2c1ncn2[C@@H]1O[C@H](CO)[C@@H](NC(=O)[C@@H](N)CCS(C)(=O)=O)[C@H]1O
pIC50 [9]: 5.90 | pKi [10]: 5.40

O=C(CSc1nnc(-c2ccc([N+](=O)[O-])o2)s1)c1ccccc1Cl
zone of inhibition at 50 µg/disc [11]: ≥ 20 mm

Cc1ncc([N+](=O)[O-])n1CCO [METRONIDAZOLE]
MIC [1]: > 254 µg/mL | ED50 [2]: 5.4 µg/mL (≈ 31.6 µM) | MIC [3]: 2 µg/mL (≈ 11.7 µM) | diameter of the inhibition zone (DIZ) [12]: 10 mm

CCCCCCCOC(=O)/C=C/c1ccc(O)c(O)c1
MIC [7]: 250 µg/mL (≈ 898 µM)

CCOc1ccc2nc(S(N)(=O)=O)sc2c1 [ETHOXZOLAMIDE]
MIC [13]: 200 µM (≈ 51.7 µg/mL) | MIC [14]: 200 µM (≈ 51.7 µg/mL)

O=C(Cn1cc(/N=N/c2cccnc2)c2ccccc21)Nc1ccc(Cl)cc1
pIC50 [4]: 6.10

CCCNC(=O)CSc1nnc(-c2ccc([N+](=O)[O-])o2)s1
diameter of the inhibition zone (DIZ) [12]: 10 mm | diameter of the inhibition zone (DIZ) [15]: 33 mm

NC(=O)Cc1csc(SC2=C(C(=O)O)N3C(=O)[C@@H](NC(=O)Cc4ccccc4)[C@H]3SC2)n1
MIC [16]: 0.00078 µg/mL (≈ 0.00159 µM) | MIC [17]: 0.00313 µg/mL (≈ 0.00638 µM)

CC(Sc1nnc(-c2ncc([N+](=O)[O-])n2C)s1)c1ccccc1 (centres undefined)
diameter of the inhibition zone (DIZ) [18]: >50 mm

CC1=C(/C=N/N(C)C(N)=S)C(C)(C)CC=C1
MIC90 [19]: 4 µM (≈ 0.949 µg/mL)

Cn1c([N+](=O)[O-])cnc1/C=C1\S/C(=N/c2cccs2)NC1=O
MIC [1]: < 1.5 µg/mL

Clc1ccc(Cn2cc(COc3cccc4ccccc34)nn2)cc1Cl
pIC50 [9]: 5.90

CO/N=C(/CN1CCN(c2cc3c(cc2F)c(=O)c(C(=O)O)cn3C2CC2)CC1)c1ccccc1Cl
diameter of the inhibition zone (DIZ) [20]: 6 mm

CC1=C(/C=N/Nc2nc(-c3cccc([N+](=O)[O-])c3)cs2)C(C)(C)CC=C1
MIC50 [19]: 2 µg/mL (≈ 5.43 µM)

CCCCSC[C@H]1CN(Cc2c[nH]c3c(N)ncnc23)C[C@@H]1O
pKd [21]: > 7.30

CC1=C(/C=N/NC(N)=S)C(C)(C)CC=C1
MIC90 [19]: 4 µM (≈ 0.893 µg/mL)

COc1ccc(-c2oc3ccccc3c(=O)c2OCC(=O)Nc2ccc3c(c2)COC3=O)cc1
inhibition [22]: 57% | pIC50 [9]: 5.73 | inhibition [23]: > 70% | pIC50 [24]: 5.66

Cc1ncc([N+](=O)[O-])n1CCOc1cc(O)c2c(=O)c(-c3ccc(O)cc3)coc2c1
MIC [25]: 0.39 µg/mL (≈ 0.921 µM)

O=c1oc2ccccc2cc1-c1csc(N/N=C/c2ccco2)n1
MIC [26]: ≥ 16 µg/mL

NNc1nc(-c2cc3ccccc3oc2=O)cs1
MIC [26]: ≥ 16 µg/mL

CN(O)C(=O)CC(O)c1cccc(Cl)c1 (centres undefined)
pIC50 [27]: 5.96

CC1=C(C=O)C(C)(C)CC=C1
MIC50 [19]: 2 µg/mL (≈ 13.3 µM)

CCCSC[C@H]1CN(Cc2c[nH]c3c(N)ncnc23)C[C@@H]1O
pKd [21]: > 7.30

O=C1N/C(=N\c2cccs2)S/C1=C\c1ccc([N+](=O)[O-])o1
MIC [1]: < 1.5 µg/mL

O=C(CC(O)c1cc(Cl)ccc1OCc1ccccc1)NO (centres undefined)
pIC50 [27]: 6.82 | fraction unbound [28]: 0.56

CCCCCCSC[C@H]1CN(Cc2c[nH]c3c(N)ncnc23)C[C@@H]1O
pKd [21]: > 7.30

CC[C@H]1OC(=O)[C@H](C)[C@@H](O[C@H]2C[C@@](C)(OC)[C@@H](O)[C@H](C)O2)[C@H](C)[C@@H](O[C@@H]2O[C@H](C)C[C@H](N(C)C)[C@H]2O)[C@](C)(OC)C[C@@H](C)C(=O)[C@H](C)[C@@H](O)[C@]1(C)O [CLARITHROMYCIN]
MIC [7]: 0.78 µg/mL (≈ 1.04 µM)

CN(CCO)CC(O)COc1cccc2c(=O)c3ccccc3oc12.Cl (centres undefined)
IC50 [29]: 5 µg/mL

COc1cc2ccc(=O)oc2cc1O[C@@H]1O[C@H](CO)[C@@H](O)[C@H](O)[C@H]1O [SCOPOLIN]
MIC [8]: 50 µg/mL (≈ 141 µM)

CCCCOC(=O)/C=C/c1ccc(O)c(O)c1 [BUTYL CAFFEATE]
MIC [7]: 250 µg/mL (≈ 1060 µM)

COc1ccc(C[C@H](N)C(=O)N[C@H]2[C@@H](O)[C@H](n3cnc4c(N(C)C)ncnc43)O[C@@H]2CO)cc1 [PUROMYCIN]
pKi [10]: 5.40

O=C(COc1ccc2ccccc2c1)Nc1ccc2c(c1)COC2=O
pIC50 [24]: 5.66
